Source: patent US20250213549A1, “COMPOSITION COMPRISING NICOTINAMIDE, NICOTINAMIDE PRECURSORS, NICOTINAMIDE METABOLITES OR COMBINATIONS THEREOF FOR PREVENTING OR REDUCING ONE OR MORE POST-ACUTE SYMPTOMS OF INFECTIOUS DISEASES” (CONARIS Research Institute AG, priority 2022, published 2025)

What was measured:
COVID-19 patients [1] = settings: week 2; of 92 patients treated with nicotinamide
COVID-19 patients [2] = assay: Impaired sense of smell in acute COVID-19 (patient interviews, change to baseline), COVit-2 risk factor population; assay type: in vivo, human; settings: for Impaired sense of smell: Persistence (no change), frequency / Impaired sense of smell: Resolution of impairment (return to normal), frequency / Impaired sense of smell: Worsening (new impairment), frequency: number of patients
From the text: (§1) In the monocentric, randomized, double-blind, prospective, placebo-controlled dietary intervention trial COVit-2 (DRKS00021214; NCT04751604) conducted at the Department of Internal Medicine I of the University Medical Center Schleswig-Holstein, Campus Kiel (Germany), outpatients with early symptomatic COVID-19 (up to 7 days after their first positive SARS-CoV-2 PCR test) in domestic quarantine were recruited from February 2021 to January 2022. As the vaccinations against SARS-CoV-2 became available to the broader public only after several hundred patients had already been recruited into the COVit-2 trial, partly or fully vaccinated patients were excluded from participation to maintain the same inclusion population and ensure formal comparability of all patients within the trial. However, there is no reason or evidence to assume that the fundamental metabolic and microbiota-targeting effects of nicotinamide could be any different in symptomatic COVID-19 patients with or without prior vaccination.
(§2) For details of the trial, see Wätzig & Schreiber 2021, PCT/EP2021/083138. Patients were randomized to oral self-administration (once daily with breakfast for 28 days) of either a combination of two different nicotinamide tablets (one conventional 500-mg immediate-release nicotinamide tablet and one novel 500-mg controlled-ileocolonic-release nicotinamide [CICR-NAM]tablet, which ensures prolonged and continuous intestinal exposure to nicotinamide) or matching placebo tablets. The entire trial was conducted remotely. Patients registered online and were contacted by the study team to check their eligibility and to supply the written patient information and informed consent forms. After informed consent, patients were called for baseline data acquisition (week 0) and subsequently at week 2, week 4 and week 6. The queried baseline information included personal and demographic data, smoking status, comorbidities, concomitant administration of dietary supplements or medicaments as well as COVID-19 symptoms. At weeks 2, 4 and 6, regular intake of the trial supplements and concomitant supplements and medicaments, respectively, was queried as well as the current COVID-19 symptoms and disease course.
(§3) The COVit-2 trial (see Example 2) was expanded to a total of n=900 randomized patients. Of these, n=500 patients had at least one characteristic or underlying medical condition associated with an increased risk of developing severe illness from COVID-19, which was the population that had benefited most from nicotinamide supplementation in the acute phase of the disease (Wätzig & Schreiber 2021, PCT/EP2021/083138) and is hereinafter referred to as ‘risk factor population’.
(§4) In contrast, in the final analysis of n=500 patients of the risk factor population (the primary analysis population for acute COVID-19 in the COVit-2 trial), there was rather a trend favouring placebo, as evidenced by the rates of resolved, constant or newly occurring impairment shown in Table 2 to Table 5 below.
(§5) Here, the efficacy variables “impaired sense of smell” (yes/no) and “impaired sense of taste” (yes/no) from patient interviews represent the broadest and most sensitive approach, as other more specific tests or questions miss aspects of smell or taste that are not explicitly queried and thus may fail to detect significant differences. In the acute phase of the COVit-2 trial, these variables were analyzed using change to baseline, considered as resolution (symptom present at baseline but not at week x), persistence (no change compared to baseline) or worsening (symptom present at week x but not at baseline). The frequency of patients with symptom resolution, persistence or worsening for all weeks by treatment group was compared using the Cochran-Mantel-Haenszel test. Post-hoc tests for each week were calculated using the Fisher Exact test with Benjamini & Hochberg adjustment for multiple testing. The Woolfe test was performed to test for homogeneity of odds ratios across time. […]

[3] = tested on: COVID-19 patients (PCS symptoms); assay: Generalised Anxiety Disorder 7 (GAD-7) at 6-month follow-up, COVit-2 pilot population; assay type: in vivo, human; settings: pilot population n=50
From the text: (§6) In the monocentric, randomized, double-blind, prospective, placebo-controlled dietary intervention trial COVit-2 (DRKS00021214; NCT04751604) conducted at the Department of Internal Medicine I of the University Medical Center Schleswig-Holstein, Campus Kiel (Germany), outpatients with early symptomatic COVID-19 (up to 7 days after their first positive SARS-CoV-2 PCR test) in domestic quarantine were recruited from February 2021 to January 2022. […]
(§7) Approximately 6 months after infection, patients were contacted for follow-up interviews and a large battery of questionnaires and tests including antibody level measurements. […] A validated smell test (University of Pennsylvania Smell Identification Test™; Sensonics/MediSense) was performed by the patient and recorded as patient-reported outcome by a paper questionnaire. Questionnaires on olfactory and gustatory abilities (incl. the Self-reported Mini Olfactory Questionnaire, Self-MOQ, and the Questionnaire of Olfactory Disorders, QOD), respiration (Multidimensional Dyspnea Profile, MDP), mental state (Patient Health Questionnaire Depression, PHQ-8; Generalised Anxiety Disorder 7, GAD-7; Perceived Stress Scale, PSS; Brief Resilience Scale, BRS), sleep quality (Pittsburgh Sleep Quality Index, PSQI) and fatigue (Multidimensional Fatigue Inventory, MFI) were recorded as patient-reported outcomes by paper questionnaires. […]

COVID-19 patients [4] = assay: Impaired sense of taste at 6 months after COVID-19, COVit-2 risk factor population; assay type: in vivo, human
From the text: as §2, with “At weeks 2, 4 and 6, regular intake of the trial supplements and concomitant supplements and medicaments, respectively, was queried as well as the current COVID-19 symptoms and disease course.” left out
(§8) Approximately 6 months after infection, patients were contacted for follow-up interviews and a large battery of questionnaires and tests including antibody level measurements. […] A validated smell test (University of Pennsylvania Smell Identification Test™; Sensonics/MediSense) was performed by the patient and recorded as patient-reported outcome by a paper questionnaire. […]

[5] = tested on: antibodies directed against the nucleocapsid (N) protein of SARS-CoV-2; assay: Anti-N antibody levels (AProof Duo Test ELISA) at 6-month follow-up, COVit-2 trial; assay type: in vivo, human
[6] = tested on: antibodies directed against the spike (S) protein of SARS-CoV-2; assay: Anti-S antibody levels (AProof Duo Test ELISA) at 6-month follow-up, COVit-2 trial; assay type: in vivo, human
From the text: as §1, §2
For the antibody level measurements, the time between the positive SARS-CoV-2 PCR test and the date of blood sampling for antibody analysis as well as, if applicable, the intervals between one or more subsequent vaccinations against SARS-CoV-2 and the blood sampling date were recorded. Antibody levels were measured using the AProof Duo Test (Adversis Pharma, now AP Diagnostics; Leipzig, Germany). In this test, dried blood spot samples are rehydrated and analysed by ELISAs detecting antibodies directed against the nucleocapsid (N) or spike (S) protein of SARS-CoV-2. Antibodies against the N protein are analysed to evaluate immunity generated only by SARS-CoV-2 infection. After infection with SARS-CoV-2, levels of antibodies against the S protein can represent both the consequences of infection (if no additional vaccination is performed) or of the combined humoral immunity generated by infection and subsequent vaccination(s). Between the 6-week observation period of the acute infection and the follow-up after at least 6 months, many trial participants had been vaccinated against SARS-CoV-2. Anti-N antibody levels were quantified as percent of the signal of a positive control consisting of an anti-N antibody pool from five donors collected at different time points starting 2 weeks after PCR-confirmed infection with SARS-CoV-2. This anti-N antibody pool was diluted in the negative control medium at a fixed ratio. The detection was considered negative if below 20% of the positive control, borderline for 20-30% and positive if above 30%. Anti-S antibody protein levels were quantified as binding antibody units per milliliter (BAU/mL; according to the WHO International Standard for anti-SARS-CoV-2 immunoglobulin [human][NIBSC code 20/136]). […]

[7] = tested on: COVID-19 patients (PCS symptoms); assay: University of Pennsylvania Smell Identification Test (UPSIT) at 6-month follow-up, COVit-2 pilot population; assay type: in vivo, human; settings: pilot population n=50
From the text: as §6, §7

COVID-19 patients [8] = assay: Impaired sense of smell at 6 months after COVID-19, COVit-2 risk factor population; assay type: in vivo, human
From the text: as §2, with “At weeks 2, 4 and 6, regular intake of the trial supplements and concomitant supplements and medicaments, respectively, was queried as well as the current COVID-19 symptoms and disease course.” left out
as §8

[9] = tested on: COVID-19 patients (PCS symptoms); assay: Cognition test T3MS at 6-month follow-up, COVit-2 pilot population; assay type: in vivo, human
From the text: as §6, §7

[10] = tested on: COVID-19 patients (PCS symptoms); assay: Perceived Stress Scale (PSS) at 6-month follow-up, COVit-2 pilot population; assay type: in vivo, human; settings: pilot population n=50
From the text: as §6, §7

COVID-19 patients [11] = settings: acute phase, baseline until Week 6, mainly at week 2; interim analysis n=402; cited from earlier work
COVID-19 patients [12] = assay: Impaired sense of taste in acute COVID-19 (patient interviews, change to baseline), COVit-2 risk factor population; assay type: in vivo, human; settings: for Impaired sense of taste: Persistence (no change), frequency / Impaired sense of taste: Resolution of impairment (return to normal), frequency / Impaired sense of taste: Worsening (new impairment), frequency: number of patients
From the text: as §1, §2, §3, §4, §5

[13] = tested on: COVID-19 patients (PCS symptoms); assay: Patient Health Questionnaire Depression (PHQ-8) at 6-month follow-up, COVit-2 pilot population; assay type: in vivo, human; settings: pilot population n=50
From the text: as §6, §7

COVID-19 patients (PCS) = assay: PCS score at 6 months after COVID-19 in PCS risk factor population, COVit-2; settings: PCS risk factor population (more than 5 predictors), N = 70
From the text: In this PCS score, 12 long-term symptom complexes (fatigue, cough/wheezing, neurological ailments, joint/muscle pain, ear-nose-throat ailments, gastrointestinal ailments, sleeping disturbance, exercise intolerance, infection signs, chemosensory deficits, chest pain and dermatological ailments) are combined with different weights.
In order to characterize a relevant subpopulation of the risk factor population as defined above that was additionally at risk for the development of PCS, baseline characteristics and symptoms of all available patients of the placebo population (n=425) were used to identify predictors for a PCS score of ≥5 at month 6 with a significance threshold of P<0.05. These predictors were the following: • medical history: chronic obstructive pulmonary disease, organ transplantation, depression, other chronic diseases, permanent intake of medication; • symptoms from the onset of COVID-19 until the trial baseline: shortness of breath, whistling/wheezing breathing, dizziness, vomiting, conjunctivitis; • at baseline: shortness of breath, whistling/wheezing breathing, dizziness, conjunctivitis, chills, muscle pain, limb pain, limitation of activity (a score of 2 in the WHO scale of COVID-19 severity developed in 2020; https://apps.who.int/iris/rest/bitstreams/1266940/retrieve, last accessed on 20 Mar. […]

[14] = acute phase, baseline until Week 6
[15] = 6 months after COVID-19, N = 236
[16] = first 50 patients per trial arm
[17] = n=50, negative if below 20% of positive control
[18] = n=50, positive if above 30% of positive control
[19] = n=50, negative if below 22 BAU/mL
[20] = n=50, positive if above 44 BAU/mL

Structure (SMILES): NC(=O)c1cccnc1 [Nicotinamide, nicotinamide]
- shortness of breath: patients recovered (COVID-19 patients [1]): 56
- Impaired sense of smell: Persistence (no change), frequency (COVID-19 patients [2]; Week 2): 155
- Impaired sense of smell: Resolution of impairment (return to normal), frequency (COVID-19 patients [2]; Week 2): 61
- Impaired sense of smell: Worsening (new impairment), frequency (COVID-19 patients [2]; Week 2): 32
- Impaired sense of smell: Persistence (no change), frequency (COVID-19 patients [2]; Week 4): 150
- Impaired sense of smell: Resolution of impairment (return to normal), frequency (COVID-19 patients [2]; Week 4): 78
- Impaired sense of smell: Worsening (new impairment), frequency (COVID-19 patients [2]; Week 4): 20
- Impaired sense of smell: Persistence (no change), frequency (COVID-19 patients [2]; Week 6): 141
- Impaired sense of smell: Resolution of impairment (return to normal), frequency (COVID-19 patients [2]; Week 6): 92
- Impaired sense of smell: Worsening (new impairment), frequency (COVID-19 patients [2]; Week 6): 15
- effect on impaired sense of smell (COVID-19 patients [2]; [14]): no beneficial effect
- median GAD-7 score [3]: 3
- Impaired sense of taste, % of patients (COVID-19 patients [4]; [15]): 8.05%
- effect on frequency of impaired sense of taste (COVID-19 patients [4]; after six months): significantly reduced frequencies
- Anti-N antibodies, median [5, 16]: 10% + control
- Anti-N antibodies, % negative [5, 17]: 66%
- Anti-N antibodies, n negative [5, 17]: 33
- Anti-N antibodies, % positive [5, 18]: 28%
- Anti-N antibodies, n positive [5, 18]: 14
- Anti-S antibodies, median [6, 16]: 813 BAU/mL
- Anti-S antibodies, % negative [6, 19]: 2%
- Anti-S antibodies, n negative [6, 19]: 1
- Anti-S antibodies, % positive [6, 20]: 94%
- Anti-S antibodies, n positive [6, 20]: 47
- Anti-S antibodies, median ([6]; patients with at least one characteristic or condition associated with increased risk of severe COVID-19): 1,121 BAU/mL
- proportion of patients with strong microsmia/hyposmia (UPSIT score <26) [7]: 2%
- Impaired sense of smell, % of patients (COVID-19 patients [8]; [15]): 11.02%
- effect on frequency of impaired sense of smell (COVID-19 patients [8]; after six months): significantly reduced frequencies
- proportion of patients with mild cognitive impairment (T3MS score <89) ([9]; patients with increased risk of developing severe COVID-19): 10%
- proportion of patients with mild cognitive impairment (T3MS score <89) ([9]; pilot population n=50): 8%
- median PSS score [10]: 24
- benefit with regard to parameters of physical performance (COVID-19 patients [11]): biologically and statistically significant benefit
- Impaired sense of taste: Persistence (no change), frequency (COVID-19 patients [12]; Week 2): 170
- Impaired sense of taste: Resolution of impairment (return to normal), frequency (COVID-19 patients [12]; Week 2): 56
- Impaired sense of taste: Worsening (new impairment), frequency (COVID-19 patients [12]; Week 2): 22
- Impaired sense of taste: Persistence (no change), frequency (COVID-19 patients [12]; Week 4): 159
- Impaired sense of taste: Resolution of impairment (return to normal), frequency (COVID-19 patients [12]; Week 4): 74
- Impaired sense of taste: Worsening (new impairment), frequency (COVID-19 patients [12]; Week 4): 15
- Impaired sense of taste: Persistence (no change), frequency (COVID-19 patients [12]; Week 6): 157
- Impaired sense of taste: Resolution of impairment (return to normal), frequency (COVID-19 patients [12]; Week 6): 83
- Impaired sense of taste: Worsening (new impairment), frequency (COVID-19 patients [12]; Week 6): 8
- effect on impaired sense of taste (COVID-19 patients [12]; [14]): no beneficial effect
- median PHQ-8 score [13]: 4
- PCS score, mean (COVID-19 patients (PCS)): 3.66
